Results as given in patent US20260041683A1, “Compounds with Anti-Acinetobacter Baumannii Activity” (University of Kentucky Research Foundation, priority 2022, published 2026).
Values after ≈ are worked out from the molar mass of the structure shown. “Also recorded” adds a separate entry of the source. Read-outs that look alike come from different tables or passages of the source.

What was measured:
S. enterica ATCC 14028 = assay: MIC determination; format: cell-based; conditions: Salmonella enterica, ATCC14028
[1] = system: human embryonic kidney cells (HEK-293); assay: Mammalian cytotoxicity assay (resazurin); conditions: HEK-293, 32 μg/mL (printed 32 g/mL for 3e), 24 h
[2] = system: biofilm formed by Ab ATCC 19606; assay: Biofilm prevention assay (crystal violet); conditions: compound added while biofilm is forming
Ab ATCC 19606 [3] = assay: Development of resistance, 15-passage MIC assay; format: cell-based, Acinetobacter baumannii; conditions: 15 passages at ½×MIC
K. pneumoniae ATCC 27736 = assay: MIC determination; format: cell-based; conditions: Klebsiella pneumoniae, ATCC27736; Table 5; Mueller-Hinton medium; F = K. pneumoniae ATCC 27736; read-out: MIC strain F
B. anthracis Sterne F32 = assay: microbe, parasite or virus in culture; format: cell-based; conditions: Bacillus anthracis
E. coli MC1061 = assay: MIC determination; format: cell-based; conditions: Escherichia coli; Table 5; Mueller-Hinton medium; D = E. coli MC1061; read-out: MIC strain D
P. aeruginosa ATCC 27853 = assay: MIC determination; format: cell-based; conditions: Pseudomonas aeruginosa, ATCC27853; Table 5; Mueller-Hinton medium; G = P. aeruginosa ATCC 27853; read-out: MIC strain G
[4] = system: S. epidermidis ATCC 12228; assay: MIC determination; format: cell-based; conditions: Staphylococcus epidermidis, ATCC12228
M. smegmatis = assay: MIC determination; format: cell-based, Mycobacterium smegmatis; conditions: Mycolicibacterium smegmatis; Table 4
[5] = system: preformed biofilm of Ab ATCC 19606; assay: Biofilm disruption assay (crystal violet); conditions: compound added after formation of biofilm
E. cloacae ATCC 13047 = assay: MIC determination; format: cell-based; conditions: Enterobacter cloacae, ATCC13047
S. aureus ATCC 25923 = assay: MIC determination; format: cell-based; conditions: Staphylococcus aureus, ATCC25923
Ab ATCC 19606 [6] = assay: Time-kill curves; conditions: 1×MIC and 4×MIC, up to 24 h
Y. pestis CO92 = assay: microbe, parasite or virus in culture; format: cell-based; conditions: Yersinia pestis, CO92, read-out: MIC Y. pestis CO92

O=C(NNc1ccc(Cl)cc1)c1ccc(F)cn1 [Compound 3e]
MIC (S. enterica ATCC 14028; Table 4, read-out: MIC S. enterica ATCC 14028): 8 µg/mL (≈ 30.1 µM)
MIC (S. enterica ATCC 14028; Table 5, Mueller-Hinton medium, H = S. enterica ATCC 14028, read-out: MIC strain H): 64 µg/mL (≈ 241 µM)
inhibition of growth [1]: 17%
effect on biofilm formation (prevention) [2]: biofilm formation was abolished at concentrations above MIC; also recorded: inhibited biofilm formation
emergence of resistance (in words) (Ab ATCC 19606 [3]): not observed even after 15 passages; also recorded: Lack of resistance
MIC (K. pneumoniae ATCC 27736): 64 µg/mL (≈ 241 µM)
MIC (B. anthracis Sterne F32; STERNEF32, read-out: MIC B. anthracis Sterne F32): > 16 µg/mL
MIC (B. anthracis Sterne F32; STERNEF32, read-out: MIC strain A): > 64 µg/mL
MIC (E. coli MC1061): 16 µg/mL (≈ 60.2 µM)
MIC (P. aeruginosa ATCC 27853): > 64 µg/mL
MIC ([4]; Table 4, read-out: MIC S. epidermidis ATCC 12228): > 16 µg/mL
MIC ([4]; Table 5, Mueller-Hinton medium, C = S. epidermidis ATCC 12228, read-out: MIC strain C): > 64 µg/mL
MIC (M. smegmatis): 4 µg/mL (≈ 15.1 µM)
effect on preformed biofilm (disruption) [5]: did not disrupt a preformed Ab biofilm; also recorded: did not disrupt the preformed biofilm
MIC (E. cloacae ATCC 13047; Table 4, read-out: MIC E. cloacae ATCC 13047): 4 µg/mL (≈ 15.1 µM)
MIC (E. cloacae ATCC 13047; Table 5, Mueller-Hinton medium, E = E. cloacae ATCC 13047, read-out: MIC strain E): 16 µg/mL (≈ 60.2 µM)
MIC (S. aureus ATCC 25923; Table 4, read-out: MIC S. Aureus ATCC 25923): > 16 µg/mL
MIC (S. aureus ATCC 25923; Table 5, Mueller-Hinton medium, B = S. aureus ATCC 25923, read-out: MIC strain B): > 64 µg/mL
bacteriostatic or bactericidal (time-kill) (Ab ATCC 19606 [6]): bacteriostatic
MIC (Y. pestis CO92): 8 µg/mL (≈ 30.1 µM)
